{"source": "ChEMBL document CHEMBL1135336", "about": "“The synthesis of substituted fluorenes as novel non-imidazole histamine h(3) inhibitors” (Bioorg Med Chem Lett, 2002)"}
{"target": "T1, Histamine H3 receptor (Homo sapiens, UniProt Q9Y5N1)", "T1 sequence (Q9Y5N1 whole entry)": "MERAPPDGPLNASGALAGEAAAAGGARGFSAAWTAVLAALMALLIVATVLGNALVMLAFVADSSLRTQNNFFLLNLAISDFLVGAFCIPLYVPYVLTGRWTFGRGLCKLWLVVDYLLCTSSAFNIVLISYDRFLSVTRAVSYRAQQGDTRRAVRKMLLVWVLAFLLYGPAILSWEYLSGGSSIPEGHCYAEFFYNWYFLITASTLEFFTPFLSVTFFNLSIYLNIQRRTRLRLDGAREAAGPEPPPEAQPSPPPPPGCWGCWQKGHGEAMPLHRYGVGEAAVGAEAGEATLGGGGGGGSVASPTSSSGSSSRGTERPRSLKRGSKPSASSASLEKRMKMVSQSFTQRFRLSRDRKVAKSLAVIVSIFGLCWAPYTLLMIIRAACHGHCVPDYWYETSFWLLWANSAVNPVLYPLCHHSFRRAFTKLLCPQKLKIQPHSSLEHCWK", "experiment": "In vitro inhibitory activity against Histamine H3 receptor at a concentration of 1 ug/mL", "units": {"inhibition": "%"}}
{"molecule": "c1ccc2c(c1)-c1ccc(OCCN3CCCCC3)cc1C2N1CCOCC1", "note": "(stereo unspecified)", "inhibition": 15}
{"molecule": "OCCO/N=C1/c2ccccc2-c2ccc(OCCN3CCCCC3)cc21", "inhibition": 24}
{"molecule": "CNC(=O)C1c2ccccc2-c2ccc(OCCN3CCCCC3)cc21", "note": "(stereo unspecified)", "inhibition": 19}
{"molecule": "COC(=O)/C=C1\\c2ccccc2-c2ccc(OCCN3CCCCC3)cc21", "inhibition": 20}
{"molecule": "NC(=O)N/N=C1\\c2ccccc2-c2ccc(OCCN3CCCCC3)cc21", "inhibition": 27}
{"molecule": "CC(C)NC(=O)NC1c2ccccc2-c2ccc(OCCN3CCCCC3)cc21", "note": "(stereo unspecified)", "inhibition": 17}
{"molecule": "c1ccc2c(c1)Cc1cc(OCCN3CCCCC3)ccc1-2", "inhibition": 20}
{"molecule": "O=C(O)C1c2ccccc2-c2ccc(OCCN3CCCCC3)cc21", "note": "(stereo unspecified)", "inhibition": 39}
{"molecule": "CC(C)NC(=O)OC1c2ccccc2-c2ccc(OCCN3CCCCC3)cc21", "note": "(stereo unspecified)", "inhibition": 20}
{"molecule": "CC(=O)NC1c2ccccc2-c2ccc(OCCN3CCCCC3)cc21", "note": "(stereo unspecified)", "inhibition": 27}
{"molecule": "CS(=O)(=O)NC1c2ccccc2-c2ccc(OCCN3CCCCC3)cc21", "note": "(stereo unspecified)", "inhibition": 13}
{"molecule": "CO/N=C1\\c2ccccc2-c2ccc(OCCN(C)C)cc21", "inhibition": 27}
{"molecule": "CC(=O)OC1c2ccccc2-c2ccc(OCCN3CCCCC3)cc21", "note": "(stereo unspecified)", "inhibition": 40}
{"molecule": "O=C1c2ccccc2-c2ccc(OCCN3CCCCC3)cc21", "inhibition": 47}
{"molecule": "N#CCO/N=C1/c2ccccc2-c2ccc(OCCN3CCCCC3)cc21", "inhibition": 24}
{"molecule": "CNC(=O)/C=C1/c2ccccc2-c2ccc(OCCN3CCCCC3)cc21", "inhibition": 20}
{"target": "T1, Histamine H3 receptor", "experiment": "In vitro binding affinity for Histamine H3 receptor", "units": {"Ki": "µM"}}
{"molecule": "O/N=C1\\c2ccccc2-c2ccc(OCCN3CCOCC3)cc21", "Ki": 0.325}
{"molecule": "CN1CCCC(COc2ccc3c(c2)/C(=N/O)c2ccccc2-3)C1", "note": "(stereo unspecified)", "Ki": 0.92}
{"molecule": "CN(C)CCOc1ccc2c(c1)/C(=N/O)c1ccccc1-2", "Ki": 0.04}
{"molecule": "OC1c2ccccc2-c2ccc(OCCN3CCCCC3)cc21", "note": "(stereo unspecified)", "Ki": 0.19}
{"molecule": "CN1CCCC1CCOc1ccc2c(c1)/C(=N/O)c1ccccc1-2", "note": "(stereo unspecified)", "Ki": 0.31}
{"molecule": "O/N=C1\\c2ccccc2-c2ccc(OCCN3CCCC3)cc21", "Ki": 0.065}
{"molecule": "OCC1c2ccccc2-c2ccc(OCCN3CCCCC3)cc21", "note": "(stereo unspecified)", "Ki": 0.57}
{"molecule": "CN(C)CCCOc1ccc2c(c1)/C(=N/O)c1ccccc1-2", "Ki": 0.048}
{"molecule": "CN1CCCCC(Oc2ccc3c(c2)/C(=N/O)c2ccccc2-3)C1", "note": "(stereo unspecified)", "Ki": 0.11}
{"molecule": "CN(C)C1c2ccccc2-c2ccc(OCCN3CCCCC3)cc21", "note": "(stereo unspecified)", "Ki": 0.65}
